The record followed here is PubChem BioAssay AID248 (DTP/NCI, 2004).

This assay has as its system L1210 leukemia ip in BDF1 mice, survival T/C. As to the kind of experiment: NCI In Vivo Anticancer Drug Screen. Data for tumor model L1210 Leukemia (intraperitoneal) in B6D2F1 (BDF1) mice. The settings on record: endpoint: mean survival time, higher = longer survival. In a few lines:
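Ratio derived from survival: compound-dosed mice over vehicle-dosed mice, all bearing a transplantable tumor.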

Setting [1] is: dose: 100.0 mg/kg/injection, schedule: Q01DX009 (ip), vehicle: Klucel (hydroxypropylcellulose) (HPC).
[2] abbreviates: dose: 200.0 mg/kg/injection, schedule: Q01DX009 (ip), vehicle: Klucel (hydroxypropylcellulose) (HPC).
Setting [3] is: dose: 400.0 mg/kg/injection, schedule: Q01DX009 (ip), vehicle: Klucel (hydroxypropylcellulose) (HPC).
Setting [4] is: dose: 50.0 mg/kg/injection, schedule: Q01DX009 (ip), vehicle: saline with Tween-80.
Where [5] appears, read: dose: 50.0 mg/kg/injection, schedule: Q01DX001 (ip), vehicle: carboxymethylcellulose (CMC).
[6] abbreviates: dose: 100.0 mg/kg/injection, schedule: Q04DX002 (ip), vehicle: Klucel (hydroxypropylcellulose) (HPC).
[7] abbreviates: dose: 200.0 mg/kg/injection, schedule: Q04DX002 (ip), vehicle: Klucel (hydroxypropylcellulose) (HPC).
Setting [8] is: dose: 400.0 mg/kg/injection, schedule: Q04DX002 (ip), vehicle: Klucel (hydroxypropylcellulose) (HPC).
The mark [9] stands for this setting: dose: 100.0 mg/kg/injection, schedule: Q04DX003 (ip), vehicle: gum acacia.
Setting [10] is: dose: 200.0 mg/kg/injection, schedule: Q04DX003 (ip), vehicle: gum acacia.
The mark [11] stands for this setting: dose: 400.0 mg/kg/injection, schedule: Q04DX003 (ip), vehicle: gum acacia.

Values joined by “and” are separate entries in the source; they are usually repeats but may differ in a detail not shown here. Equal entries are not always repeated. Inconclusive results and toxic doses are left out.

Take `COC(=O)c1cc(Cl)ccc1O`: the T/C reads like this: (dose: 37.5 mg/kg/injection, schedule: Q04DX003 (ip), vehicle: Klucel (hydroxypropylcellulose) (HPC)) 100 % of control; (dose: 75.0 mg/kg/injection, schedule: Q04DX003 (ip), vehicle: Klucel (hydroxypropylcellulose) (HPC)) 100 % of control; (dose: 150.0 mg/kg/injection, schedule: Q04DX003 (ip), vehicle: Klucel (hydroxypropylcellulose) (HPC)) 92 % of control.
For `O/N=C1\CN2CCC1CC2`, the T/C runs as follows: (dose: 18.75 mg/kg/injection, schedule: Q04DX003 (ip), vehicle: saline) 104 % of control; (dose: 25.0 mg/kg/injection, schedule: Q01DX001 (ip), vehicle: saline with Tween-80) 97 % of control; (dose: 37.5 mg/kg/injection, schedule: Q04DX003 (ip), vehicle: saline) 98 % of control; (dose: 50.0 mg/kg/injection, schedule: Q01DX001 (ip), vehicle: saline with Tween-80) 97 % of control; (dose: 75.0 mg/kg/injection, schedule: Q04DX003 (ip), vehicle: saline) 102 % of control; (dose: 100.0 mg/kg/injection, schedule: Q01DX001 (ip), vehicle: saline with Tween-80) 102 % of control.
Regarding `CN(C)c1ccc(/C=C2\CC/C(=C\c3ccc(N(C)C)cc3)C2=O)cc1`, the T/C under setting [1] was 105 % of control, the T/C under setting [2] was 97 % of control and the T/C under setting [3] was 89 % of control.
Turning to `Nc1ccc(CCc2ccccc2)cc1`, the T/C under setting [4] was 97 % of control.
With `Cn1c(/N=C/c2ccc([N+](=O)[O-])cc2)c(N)c(=O)n(C)c1=O`, the T/C was 90 % of control under setting [5]; 93 % of control (dose: 100.0 mg/kg/injection, schedule: Q01DX001 (ip), vehicle: carboxymethylcellulose (CMC)); 88 % of control (dose: 200.0 mg/kg/injection, schedule: Q01DX001 (ip), vehicle: carboxymethylcellulose (CMC)); 88 % of control (dose: 400.0 mg/kg/injection, schedule: Q01DX001 (ip), vehicle: carboxymethylcellulose (CMC)).
On to `COc1cc(N(CCCl)CCCl)ccc1C=Nc1ccccc1C(=O)O`, for which the T/C by setting is: (dose: 2.3 mg/kg/injection, schedule: Q01DX015 (ip), vehicle: carboxymethylcellulose (CMC)) 117 % of control; (dose: 5.0 mg/kg/injection, schedule: Q01DX001 (ip), vehicle: carboxymethylcellulose (CMC)) 121 % of control; (dose: 5.3 mg/kg/injection, schedule: Q01DX015 (ip), vehicle: carboxymethylcellulose (CMC)) 122 % of control; (dose: 10.0 mg/kg/injection, schedule: Q01DX015 (ip), vehicle: carboxymethylcellulose (CMC)) 154 % of control; (dose: 15.0 mg/kg/injection, schedule: Q01DX015 (ip), vehicle: carboxymethylcellulose (CMC)) 119 % of control; (dose: 16.0 mg/kg/injection, schedule: Q01DX015 (ip), vehicle: carboxymethylcellulose (CMC)) 123 % of control. Besides, the T/C is, setting by setting: (dose: 20.0 mg/kg/injection, schedule: Q01DX001 (ip), vehicle: carboxymethylcellulose (CMC)) 162 % of control; (dose: 22.0 mg/kg/injection, schedule: Q01DX001 (ip), vehicle: carboxymethylcellulose (CMC)) 150 % of control; (dose: 33.0 mg/kg/injection, schedule: Q01DX001 (ip), vehicle: carboxymethylcellulose (CMC)) 164 % of control; under setting [5], 100 % of control.
Turning to `COC(=O)C1C2CC/C=C\CCC21` (stereo not drawn), the T/C was 91 % of control under setting [1], 87 % of control under setting [2] and 91 % of control under setting [3].
Take `COc1ccc(-n2cccc2/C=N\O)cc1OC`: the T/C by setting is: under setting [6], 89 % of control; under setting [7], 100 % of control; under setting [8], 96 % of control.
Regarding `O=C1N(c2cccnc2)C(c2ccccc2)C1(c1ccccc1)c1ccccc1` (stereo not drawn), the T/C is, setting by setting: under setting [9], 91 % of control; under setting [10], 87 % of control; under setting [11], 91 % of control.
As to `COc1ccc(C)cc1NC(=S)NC(=O)c1ccc(Cl)cc1Cl`, the T/C reads like this: (dose: 25.0 mg/kg/injection, schedule: Q01DX009 (ip), vehicle: saline with Tween-80) 93 % of control and 105 % of control; under setting [4], 93 % of control and 94 % of control; (dose: 100.0 mg/kg/injection, schedule: Q04DX002 (ip), vehicle: saline with Tween-80) 96 % of control; (dose: 100.0 mg/kg/injection, schedule: Q04DX003 (ip), vehicle: saline with Tween-80) 98 % of control; (dose: 200.0 mg/kg/injection, schedule: Q04DX002 (ip), vehicle: saline with Tween-80) 93 % of control and 107 % of control; (dose: 200.0 mg/kg/injection, schedule: Q04DX003 (ip), vehicle: saline with Tween-80) 95 % of control. In addition, the T/C was 96 % of control (dose: 400.0 mg/kg/injection, schedule: Q01DX009 (ip), vehicle: saline with Tween-80); 93 % of control and 98 % of control (dose: 400.0 mg/kg/injection, schedule: Q04DX002 (ip), vehicle: saline with Tween-80).
`CC(=O)Nc1nnc(Sc2n[nH]c(=O)[nH]c2=O)s1`: the T/C (dose: 10.0 mg/kg/injection, schedule: Q01DX001 (ip), vehicle: saline) is 98 % of control.
Consider `CCOC(=O)C1OC1(C)C` (stereo not drawn), for which the T/C is, setting by setting: under setting [6], 88 % of control; under setting [7], 103 % of control; under setting [8], 95 % of control.
Take `CC(C)=C1C(=O)ON(c2ccccc2)C1=O`: the T/C reads like this: (dose: 50.0 mg/kg/injection, schedule: Q01DX001 (ip), vehicle: Klucel (hydroxypropylcellulose) (HPC)) 100 % of control; (dose: 100.0 mg/kg/injection, schedule: Q01DX001 (ip), vehicle: Klucel (hydroxypropylcellulose) (HPC)) 100 % of control; (dose: 100.0 mg/kg/injection, schedule: Q04DX003 (ip), vehicle: Klucel (hydroxypropylcellulose) (HPC)) 105 % of control; (dose: 200.0 mg/kg/injection, schedule: Q01DX001 (ip), vehicle: Klucel (hydroxypropylcellulose) (HPC)) 105 % of control; (dose: 200.0 mg/kg/injection, schedule: Q04DX003 (ip), vehicle: Klucel (hydroxypropylcellulose) (HPC)) 110 % of control; (dose: 400.0 mg/kg/injection, schedule: Q01DX001 (ip), vehicle: Klucel (hydroxypropylcellulose) (HPC)) 104 % of control. Moreover, where the note is “dose: 400.0 mg/kg/injection, schedule: Q04DX003 (ip), vehicle: Klucel (hydroxypropylcellulose) (HPC)”, the T/C was 105 % of control.
Turning to `C=CCOP(=O)(N1CC1C)N1CC1C` (stereo not drawn), the T/C (dose: 29.0 mg/kg/injection, schedule: Q01DX015 (ip), vehicle: saline) was 105 % of control; the T/C (dose: 44.0 mg/kg/injection, schedule: Q01DX015 (ip), vehicle: saline) is 120 % of control; the T/C (dose: 66.0 mg/kg/injection, schedule: Q01DX015 (ip), vehicle: saline) was 114 % of control; the T/C (dose: 89.0 mg/kg/injection, schedule: Q01DX001 (ip), vehicle: saline) is 108 % of control; the T/C (dose: 200.0 mg/kg/injection, schedule: Q01DX001 (ip), vehicle: saline) is 152 % of control; the T/C (dose: 300.0 mg/kg/injection, schedule: Q01DX001 (ip), vehicle: saline) is 115 % of control. The T/C (dose: 400.0 mg/kg/injection, schedule: Q01DX001 (ip), vehicle: saline) is 86 % of control.
In the case of `CCN(CC)C(=O)OC/C=C\CC(Cl)(Cl)Cl`, the T/C was 97 % of control (dose: 50.0 mg/kg/injection, schedule: Q01DX009 (ip), vehicle: saline sonified); 111 % of control (dose: 100.0 mg/kg/injection, schedule: Q01DX009 (ip), vehicle: saline sonified); 106 % of control (dose: 100.0 mg/kg/injection, schedule: Q04DX003 (ip), vehicle: saline sonified); 94 % of control (dose: 200.0 mg/kg/injection, schedule: Q01DX009 (ip), vehicle: saline sonified); 106 % of control (dose: 200.0 mg/kg/injection, schedule: Q04DX003 (ip), vehicle: saline sonified); 106 % of control (dose: 400.0 mg/kg/injection, schedule: Q04DX003 (ip), vehicle: saline sonified).
For `N#CCCCC1(CCCC#N)OCCO1`, the T/C reads like this: (dose: 25.0 mg/kg/injection, schedule: Q01DX009 (ip), vehicle: saline) 94 % of control; (dose: 50.0 mg/kg/injection, schedule: Q01DX009 (ip), vehicle: saline) 100 % of control.
For the compound `Cc1ccc(S(=O)(=O)N/N=c2\cc(C)c3ccccc3n2C)cc1`, the T/C was 95 % of control under setting [9], 94 % of control under setting [10] and 93 % of control under setting [11].
